Measured values: PMC4433622 (Cancer research, 2015)
Changes are numbered by the printed parent chain. Names and notes keep the numbering of the source. Blank lines part the entries; values can stand above or below the molecule they belong to. Peptide text beside a SMILES is read from it. * marks the point of attachment. Cbz = O=C(OCc1ccccc1)*; CH2F = FC*

Assays:
[1] = test system: IκBα, IKKα/β in MCF-7 cells; assay: TNFα-induced IκBα degradation and IKKα/β phosphorylation, immunoblotting; assay type: cell-based, human; settings: for TNFα-induced IκBα degradation / TNFα-induced IKKα/β phosphorylation: TNFα 10 ng/ml, Z-10 7.5 µM, Z-12 5 µM
MCF-7 cells = assay: Apoptosis; assay type: cell-based, human; settings: for apoptosis (PARP cleavage, nuclear fragmentation) together with TNFα / apoptosis (PARP cleavage, nuclear fragmentation), agent alone: MCF-7 cells, 9 h; for apoptosis (PARP cleavage, nuclear fragmentation) together with TNFα: with TNFα 10 ng/ml, Z-10 7.5 µM, Z-12 5 µM; for PARP cleavage induced by the combination of TNFα and Z compounds: effect of added agent on the combination
Akt = settings: by preventing the interaction of tRXRα and p85α; cited from earlier work
Gal4-DBD-RXRα-LBD = biological target: T1, Gal4-DBD-RXRα-LBD (Homo sapiens, UniProt P19793); assay: Mammalian one hybrid assay, Gal4-DBD-RXRα-LBD with pG5-luc reporter; assay type: cell-based; settings: HEK293T cells; for Gal4-DBD-RXRα-LBD transcriptional activity (relative luciferase activity): 10 µM, 12 h
T1 sequence (P19793 227-458 limits assumed): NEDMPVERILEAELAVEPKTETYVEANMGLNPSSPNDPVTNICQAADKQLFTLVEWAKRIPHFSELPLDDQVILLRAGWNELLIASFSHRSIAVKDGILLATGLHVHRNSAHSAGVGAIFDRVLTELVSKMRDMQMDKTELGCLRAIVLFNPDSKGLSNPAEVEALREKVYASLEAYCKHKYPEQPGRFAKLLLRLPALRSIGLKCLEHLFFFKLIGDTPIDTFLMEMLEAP

p65 in MCF-7 cells = assay: TNFα-induced p65 nuclear translocation, immunostaining; assay type: cell-based, human; settings: 10 µM pretreatment 1 h, TNFα 10 ng/ml 30 min
PPARγ = PPARγ (Homo sapiens, UniProt P37231); assay: Mammalian one hybrid assay, PPARγ chimeric reporter; assay type: cell-based; settings: HEK293T cells, 5 µM, 12 h
Chain of PPARγ (P37231 238-503 limits assumed, species assumed): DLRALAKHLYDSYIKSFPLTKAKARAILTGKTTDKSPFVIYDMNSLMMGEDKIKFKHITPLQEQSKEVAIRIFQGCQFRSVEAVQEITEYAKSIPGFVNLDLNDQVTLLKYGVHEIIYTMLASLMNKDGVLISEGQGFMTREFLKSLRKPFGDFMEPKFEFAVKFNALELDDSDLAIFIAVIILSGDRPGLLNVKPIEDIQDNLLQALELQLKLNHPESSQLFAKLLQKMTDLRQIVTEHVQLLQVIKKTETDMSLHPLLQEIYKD

MCF-7 xenografts = MCF-7 xenografts in nude mice; assay type: in vivo, Nude mice (BALB/c); settings: MCF-7 bearing mice, 30 mg/kg oral once a day
GR = GR (Homo sapiens, UniProt P04150); assay: Mammalian one hybrid assay, GR chimeric reporter; assay type: cell-based; settings: HEK293T cells, 5 µM, 12 h
Chain of GR (P04150 524-758 limits assumed): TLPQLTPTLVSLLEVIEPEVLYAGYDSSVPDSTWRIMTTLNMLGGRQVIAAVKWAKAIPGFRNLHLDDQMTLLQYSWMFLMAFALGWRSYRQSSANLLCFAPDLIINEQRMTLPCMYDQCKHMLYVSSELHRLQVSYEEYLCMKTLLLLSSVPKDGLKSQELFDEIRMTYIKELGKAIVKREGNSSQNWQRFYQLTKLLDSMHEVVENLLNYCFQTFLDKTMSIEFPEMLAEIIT

RARγ = RARγ (Homo sapiens, UniProt P13631); assay: Mammalian one hybrid assay, RARγ chimeric reporter; assay type: cell-based; settings: HEK293T cells, 5 µM, 12 h
Chain of RARγ (P13631 185-419 limits assumed, species assumed): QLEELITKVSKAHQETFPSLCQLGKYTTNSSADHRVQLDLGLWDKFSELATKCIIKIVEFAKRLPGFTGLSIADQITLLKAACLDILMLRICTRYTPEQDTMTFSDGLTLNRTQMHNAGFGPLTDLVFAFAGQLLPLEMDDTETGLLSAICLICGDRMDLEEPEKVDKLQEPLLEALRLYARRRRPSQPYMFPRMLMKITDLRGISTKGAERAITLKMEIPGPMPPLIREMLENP

Gal4-DBD-RARα-LBD = Gal4-DBD-RARα-LBD (Homo sapiens, UniProt P10276); assay: Mammalian one hybrid assay, Gal4-DBD-RARα-LBD; assay type: cell-based; settings: HEK293T cells, 5 µM, 12 h
Chain of Gal4-DBD-RARα-LBD (P10276 183-417 limits assumed): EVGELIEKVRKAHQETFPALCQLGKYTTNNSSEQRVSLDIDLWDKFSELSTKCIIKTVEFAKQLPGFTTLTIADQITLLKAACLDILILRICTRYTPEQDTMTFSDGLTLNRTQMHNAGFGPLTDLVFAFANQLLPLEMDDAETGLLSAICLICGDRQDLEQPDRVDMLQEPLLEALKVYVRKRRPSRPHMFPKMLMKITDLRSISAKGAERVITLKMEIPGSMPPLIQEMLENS

LXRα = LXRα (Homo sapiens, UniProt Q13133); assay: Mammalian one hybrid assay, LXRα chimeric reporter; assay type: cell-based; settings: HEK293T cells, 5 µM, 12 h
Chain of LXRα (Q13133 209-447 limits assumed): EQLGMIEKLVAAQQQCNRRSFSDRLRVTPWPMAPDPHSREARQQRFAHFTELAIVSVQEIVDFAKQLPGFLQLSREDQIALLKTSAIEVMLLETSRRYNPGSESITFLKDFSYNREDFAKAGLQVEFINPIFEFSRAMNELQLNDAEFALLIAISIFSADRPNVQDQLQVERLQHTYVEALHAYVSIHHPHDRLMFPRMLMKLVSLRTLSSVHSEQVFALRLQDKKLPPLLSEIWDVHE

Gal4-DBD-ERα-LBD = Gal4-DBD-ERα-LBD (Homo sapiens, UniProt P03372); assay: Mammalian one hybrid assay, Gal4-DBD-ERα-LBD; assay type: cell-based; settings: HEK293T cells, 5 µM, 12 h
Chain of Gal4-DBD-ERα-LBD (P03372 311-547 limits assumed): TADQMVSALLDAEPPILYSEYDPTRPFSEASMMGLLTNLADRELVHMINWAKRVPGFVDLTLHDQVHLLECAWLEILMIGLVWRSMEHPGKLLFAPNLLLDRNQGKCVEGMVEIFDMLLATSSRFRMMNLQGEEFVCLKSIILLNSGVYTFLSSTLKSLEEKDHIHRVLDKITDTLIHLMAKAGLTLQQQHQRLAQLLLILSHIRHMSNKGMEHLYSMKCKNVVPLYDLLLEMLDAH

RIP1 in MCF-7 cells = assay: tRXRα-promoted TNFα-induced RIP1 ubiquitination; assay type: cell-based, human; settings: 10 µM 1 h, TNFα 20 ng/ml 5 min
NFκB = NFκB reporter gene assay; assay type: cell-based
RXRα-LBD [2] = biological target: T2, RXRα-LBD (Homo sapiens, UniProt P19793); assay: Non-denaturing PAGE of RXRα-LBD oligomers; settings: Z compounds 10 µM, 9-cis-RA 0.5 µM, 3 h
T2 sequence (P19793 223-462): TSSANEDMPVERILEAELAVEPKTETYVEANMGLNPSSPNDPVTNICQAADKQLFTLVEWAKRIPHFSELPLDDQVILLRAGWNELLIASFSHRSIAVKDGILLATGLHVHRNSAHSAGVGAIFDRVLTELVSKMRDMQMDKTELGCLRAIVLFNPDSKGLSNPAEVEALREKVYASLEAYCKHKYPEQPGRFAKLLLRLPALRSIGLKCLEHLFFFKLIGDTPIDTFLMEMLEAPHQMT

RXRα-LBD [3] = biological target: T2, RXRα-LBD; assay: Ligand competition assay with [3H]9-cis-RA; assay type: binding
RXRα-LBD [4] = biological target: T2, RXRα-LBD; assay: Differential scanning calorimetry; assay type: binding
tRXRα with TRAF2 = tRXRα with TRAF2 (Homo sapiens, UniProt P19793); assay: TNFα-induced TRAF2/tRXRα complex formation, co-immunoprecipitation; settings: HEK293T cells, 5 µM 1 h, TNFα 40 ng/ml 15 min
Chain of tRXRα with TRAF2 (P19793 81-462 limits assumed): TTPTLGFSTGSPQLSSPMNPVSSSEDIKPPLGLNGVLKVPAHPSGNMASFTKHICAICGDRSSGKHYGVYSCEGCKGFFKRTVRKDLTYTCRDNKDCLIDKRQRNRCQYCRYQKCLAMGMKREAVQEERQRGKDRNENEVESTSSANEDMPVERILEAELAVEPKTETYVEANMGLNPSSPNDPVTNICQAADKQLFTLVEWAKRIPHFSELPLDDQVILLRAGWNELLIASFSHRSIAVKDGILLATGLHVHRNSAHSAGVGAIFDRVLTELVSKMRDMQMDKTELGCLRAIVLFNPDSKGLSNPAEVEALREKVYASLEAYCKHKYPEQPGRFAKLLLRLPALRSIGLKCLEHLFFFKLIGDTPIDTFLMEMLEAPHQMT

Gal4-DBD-RXRα-LBD/R316E = Gal4-DBD-RXRα-LBD/R316E (Homo sapiens, UniProt P19793, R316E); assay: Mammalian one hybrid assay, Gal4-DBD-RXRα-LBD/R316E; assay type: cell-based; settings: HEK293T cells; 9-cis-RA 0.1 µM, Z-10 and Z-12 5 µM
Chain of Gal4-DBD-RXRα-LBD/R316E (P19793 227-458 R316E limits assumed): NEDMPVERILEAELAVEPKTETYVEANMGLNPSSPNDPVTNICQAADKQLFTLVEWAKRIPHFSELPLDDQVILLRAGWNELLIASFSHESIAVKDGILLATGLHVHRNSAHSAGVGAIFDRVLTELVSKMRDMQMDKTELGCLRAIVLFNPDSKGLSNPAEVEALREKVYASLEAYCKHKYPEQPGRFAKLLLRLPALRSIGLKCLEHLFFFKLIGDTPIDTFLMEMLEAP

tRXRα with p85α = assay: TNFα-induced interaction of tRXRα with p85α; assay type: cell-based
Gal4-DBD-RXRα-LBD C432S = Gal4-DBD-RXRα-LBD C432S (Homo sapiens, UniProt P19793, C432S); assay: Mammalian one hybrid assay, Gal4-DBD-RXRα-LBD C432S mutant; assay type: cell-based; settings: HEK293T cells; 9-cis-RA 0.1 µM, Z-10 and Z-12 5 µM
Chain of Gal4-DBD-RXRα-LBD C432S (P19793 227-458 C432S limits assumed): as the sequence (P19793 227-458 R316E limits assumed) above, with E90R, C206S counted along it

RXRα-LBD [5] = biological target: T2, RXRα-LBD; assay: Surface plasmon resonance; assay type: binding
RXRα homodimer = RXRα homodimer (Homo sapiens, UniProt P19793); assay: RXRE-luciferase reporter assay; settings: HEK293T cells, 12 h
Chain of RXRα homodimer (P19793 whole entry): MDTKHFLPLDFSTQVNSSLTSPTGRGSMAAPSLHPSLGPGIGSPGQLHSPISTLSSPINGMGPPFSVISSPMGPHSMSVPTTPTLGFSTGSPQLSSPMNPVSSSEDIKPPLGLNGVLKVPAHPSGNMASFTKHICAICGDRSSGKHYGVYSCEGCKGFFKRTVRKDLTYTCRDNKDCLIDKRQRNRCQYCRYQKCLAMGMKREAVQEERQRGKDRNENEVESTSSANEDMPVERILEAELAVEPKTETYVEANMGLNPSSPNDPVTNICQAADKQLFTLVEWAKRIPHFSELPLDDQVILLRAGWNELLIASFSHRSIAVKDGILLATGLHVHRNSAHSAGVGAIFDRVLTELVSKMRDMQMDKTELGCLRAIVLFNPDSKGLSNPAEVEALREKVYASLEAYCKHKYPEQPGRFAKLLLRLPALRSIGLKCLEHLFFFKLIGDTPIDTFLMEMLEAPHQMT

SEC = biological target: the molecule itself; assay: SEC

Molecule: CC1=C(/C=C/C(C)=C\C=C\C(C)=C\C(=O)O)C(C)(C)CCC1 [9-cis-RA, 9-cis-retinoic acid]
TNFα-induced IκBα degradation ([1]; MCF-7 cells): did not show apparent effects
apoptosis (PARP cleavage, nuclear fragmentation) together with TNFα (MCF-7 cells): little effect
PARP cleavage induced by the combination of TNFα and Z compounds (MCF-7 cells): able to suppress

Molecule: CC1=C(CC(=O)O)c2cc(F)ccc2/C1=C\c1ccc(C(C)C)cc1 [K-80003]
inhibition of TNFα-induced Akt activation (Akt): could inhibit

Molecule: CCCCCOc1cc2c(cc1-c1cc(/C=C/C(=O)O)ccc1O)C(C)(C)CCC2(C)C [UVI3003]
TNFα-induced IκBα degradation ([1]; MCF-7 cells): did not show apparent effects
apoptosis (PARP cleavage, nuclear fragmentation) together with TNFα (MCF-7 cells): little effect
PARP cleavage induced by the combination of TNFα and Z compounds (MCF-7 cells): able to suppress

Molecule: Cc1ccc(/C=C/[N+](=O)[O-])cc1 [Z-1, (E)-1-methyl-4-(2-nitrovinyl)benzene]
Gal4-DBD-RXRα-LBD transcriptional activity (relative luciferase activity) (Gal4-DBD-RXRα-LBD): selectively activated

Molecule: O=[N+]([O-])/C=C/c1cccc2ccccc12 [Z-10, (E)-1-(2-nitrovinyl)naphthalene]
inhibitory effect on TNFα-induced IκBα degradation, MCF-7 versus H460 cells ([1]; 7.5 µM 1 h, TNFα 30 min, MCF-7 express higher RXRα and tRXRα than H460): stronger in MCF-7 cells
TNFα-induced IKKα/β phosphorylation ([1]; MCF-7 cells): significantly inhibited
TNFα-induced IκBα degradation ([1]; MCF-7 cells): significantly inhibited
TNFα-induced p65 nuclear translocation (p65 in MCF-7 cells): significantly inhibited
activation of PPARγ chimeric reporter (PPARγ): neither of them significantly activated
tumor growth and apoptosis of cancer cells, compound alone (MCF-7 xenografts): Tumor growth inhibition and extensive apoptosis of cancer cells
activation of GR chimeric reporter (GR): neither of them significantly activated
activation of RARγ chimeric reporter (RARγ): neither of them significantly activated
activation of RARα chimeric reporter (Gal4-DBD-RARα-LBD): neither of them significantly activated
apoptosis (PARP cleavage, nuclear fragmentation), agent alone (MCF-7 cells): did not happen
apoptosis (PARP cleavage, nuclear fragmentation) together with TNFα (MCF-7 cells): significant apoptosis
activation of LXRα chimeric reporter (LXRα): neither of them significantly activated
activation of ERα chimeric reporter (Gal4-DBD-ERα-LBD): neither of them significantly activated
RXRα/Δ80-promoted TNFα-induced RIP1 ubiquitination (RIP1 in MCF-7 cells): largely blocked
inhibition of NFκB activation by TNFα (reporter gene assay) (NFκB): dose-dependently inhibited

IC50 (RXRα-LBD [3]): 330 nM
Tm values of RXRα-LBD protein (DSC) (RXRα-LBD [4]): shifted higher
Gal4-DBD-RXRα-LBD transcriptional activity (relative luciferase activity) (Gal4-DBD-RXRα-LBD): unable to activate RXRα
Molecule: O=[N+]([O-])/C=C/c1ccc2ccccc2c1 [Z-11, (E)-2-(2-nitrovinyl)naphthalene]
RXRα-LBD tetramer/dimer formation on native gel (RXRα-LBD [2]): induced higher levels of RXRα-LBD oligomerization

TNFα-induced interaction of tRXRα with TRAF2 (tRXRα with TRAF2): strongly inhibited
activation of PPARγ chimeric reporter (PPARγ): neither of them significantly activated
transactivation of Gal4-DBD-RXRα-LBD/R316E (Gal4-DBD-RXRα-LBD/R316E): strongly activated
activation of GR chimeric reporter (GR): neither of them significantly activated
RXRα-LBD tetramer/dimer formation on native gel (RXRα-LBD [2]): induced homodimer formation
activation of Gal4-DBD-RXRα-LBD with Cys432 mutated to Ser (Gal4-DBD-RXRα-LBD C432S): completely incapacitated
activation of RARγ chimeric reporter (RARγ): neither of them significantly activated
activation of RARα chimeric reporter (Gal4-DBD-RARα-LBD): neither of them significantly activated
activation of LXRα chimeric reporter (LXRα): neither of them significantly activated
IC50 (RXRα-LBD [3]): 810 nM
Kd (RXRα-LBD [5]): 1950 nM
Tm values of RXRα-LBD protein (DSC) (RXRα-LBD [4]): shifted higher
transactivation of RXRα homodimer (RXRE-luciferase) (RXRα homodimer; 5 µM): failed to induce the transactivation
activation of ERα chimeric reporter (Gal4-DBD-ERα-LBD): neither of them significantly activated
RXRα transactivation, dose dependence (Gal4-DBD-RXRα-LBD): dose-dependently activated
RXRα transactivation relative to activity of 0.1 µM 9-cis-RA (Gal4-DBD-RXRα-LBD; compound at 10 µM, % of activity of 0.1 µM 9-cis-RA): about 50%
Molecule: O=[N+]([O-])/C=C/c1c2ccccc2cc2ccccc12 [Z-12, (E)-9-(2-nitrovinyl)anthracene]
TNFα-induced IKKα/β phosphorylation ([1]; MCF-7 cells): significantly inhibited
TNFα-induced IκBα degradation ([1]; MCF-7 cells): significantly inhibited
effect on inhibiting TNFα-induced IκBα degradation when TRAF2 expression was suppressed by siRNA ([1]; MCF-7 cells, TRAF2 siRNA 36 h, TNFα 10 ng/ml 30 min): dramatically reduced
TNFα-induced p65 nuclear translocation (p65 in MCF-7 cells): significantly inhibited
tumor growth and apoptosis of cancer cells, compound alone (MCF-7 xenografts): Tumor growth inhibition and extensive apoptosis of cancer cells
inhibition of TNFα-induced interaction of tRXRα with p85α (tRXRα with p85α): could not inhibit
apoptosis (PARP cleavage, nuclear fragmentation), agent alone (MCF-7 cells): did not happen
apoptosis (PARP cleavage, nuclear fragmentation) together with TNFα (MCF-7 cells): significant apoptosis
effect on 9-cis-RA-induced RXRα homodimer transactivation (RXRα homodimer; 5 µM with 9-cis-RA 0.1 µM): inhibited 9-cis-RA-induced transactivation

Molecule: COC(=O)C[C@H](NC(=O)[C@H](C)NC(=O)[C@@H](NC(=O)OCc1ccccc1)C(C)C)C(=O)CF [Z-VAD-FMK] (Cbz-Val-Ala-Asp(OMe)-CH2F)
PARP cleavage induced by the combination of TNFα and Z compounds (MCF-7 cells): completely blocked

Molecule: CD3254
TNFα-induced IκBα degradation ([1]; MCF-7 cells): did not show apparent effects
apoptosis (PARP cleavage, nuclear fragmentation) together with TNFα (MCF-7 cells): little effect
PARP cleavage induced by the combination of TNFα and Z compounds (MCF-7 cells): able to suppress

Molecule: TNFα
apoptosis (PARP cleavage, nuclear fragmentation), agent alone (MCF-7 cells): did not happen

B1: RXRα-LBD/C432W (domain or fragment, human, UniProt P19793 223-462, looked up)
chain: T2 sequence (P19793 223-462) with C210W
stoichiometry N (SEC): 2
